# How the values were obtained:
# [1] = biological target: T1, Factor XIIIa (Homo sapiens, UniProt P00488); experiment: Factor XIIIa dependency of incorporation (dimethylcasein uptake, normal vs Factor XIII deficient plasma); assay type: biochemical; settings: 1 KBq/ml, 60 minutes; uptake in normal plasma minus Factor XIII deficient plasma
# T1 construct: Factor XIII is transformed into its active form Factor XIIIa by thrombin in the presence of calcium ions; from tissue; host or cells: human plasma
# T1 sequence (P00488 39-732 limits assumed): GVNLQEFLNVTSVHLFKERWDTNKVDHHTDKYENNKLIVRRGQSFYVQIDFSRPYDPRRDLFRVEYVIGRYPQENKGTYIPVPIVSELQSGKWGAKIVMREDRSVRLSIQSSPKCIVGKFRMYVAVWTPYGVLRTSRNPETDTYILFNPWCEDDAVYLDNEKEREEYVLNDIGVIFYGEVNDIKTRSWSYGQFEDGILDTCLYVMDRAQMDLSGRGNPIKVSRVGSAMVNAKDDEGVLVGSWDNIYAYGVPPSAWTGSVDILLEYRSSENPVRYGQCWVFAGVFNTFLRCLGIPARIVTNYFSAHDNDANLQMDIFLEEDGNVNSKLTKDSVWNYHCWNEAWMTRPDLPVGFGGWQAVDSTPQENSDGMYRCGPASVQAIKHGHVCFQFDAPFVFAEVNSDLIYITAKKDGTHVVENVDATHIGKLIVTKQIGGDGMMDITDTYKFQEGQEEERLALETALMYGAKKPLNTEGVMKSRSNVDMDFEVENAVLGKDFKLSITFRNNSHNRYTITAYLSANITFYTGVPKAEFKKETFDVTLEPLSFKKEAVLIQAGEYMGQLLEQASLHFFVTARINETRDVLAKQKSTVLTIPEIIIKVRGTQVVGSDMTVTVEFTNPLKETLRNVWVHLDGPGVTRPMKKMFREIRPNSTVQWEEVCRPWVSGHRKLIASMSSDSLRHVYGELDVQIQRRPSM
# Description: The assay was changed by replacing the mercaptoethanol with aprotinin at a final concentration of 2 μg/ml, and dimethylcasein (DMC) was used instead of casein.
# [2] = Normal rat biodistribution; assay type: in vivo; settings: i.v., male Wistar rats, Mean±SD n=3
# Description: The resolution of a clot image is dependant on the combination of rate of incorporation of the radiopharmaceutical and its blood/tissues clearance rate. For this reason the biodistribution of several compounds has been determined in rats. Male Wistar (100-150 g) rats were injected i.v. with 0.1-0.2 ml of radiolabelled tracer solution (8 MBq/ml) and dissected at different times post-injection. The % ID in each of the selected tissues was measured. Some animals were kept in metabolism cages to be able to determine the % ID excreted in urine and faeces. The dissection times used for the majority of the agents was 2, 15, 30, 60, 240 min. Data are shown as % ID, Mean±SD, (n=3).
# [3] = test system: clots induced in rat inferior vena cava; experiment: Incorporation into clots induced in a rat model (rat inferior vena cava model); assay type: in vivo; settings: rat IVC model
# Description: The rats (Male Wistar, 250-350 g) were anaesthetised with 15% urethane. After laparotomy, the vena cava was isolated and freed of surrounding fat tissue. […] The average weight of the clots formed in this model was around 27 mg, n=32, (5-50 mg range). The so compounds were injected 5 min post-induction. After 60 min the animals were sacrificed and the clot removed, weighed and counted. Other tissues e.g. blood, lung, heart, were also dissected and counted. The uptake of tracer into the clot was determined as the relative concentration (cpm/g of clot by dose/g animal ) and clot to background tissue.
# [4] = test system: human plasma clots; experiment: Incorporation into human plasma clots (in vitro plasma clot assay); assay type: biochemical; settings: control vials without thrombin and calcium chloride, 60 minutes
# Description: (§1) Incorporation of radiolabelled substrates into fibrin was investigated by induction of an in vitro human plasma clot in the following manner. To a siliconised 5 ml glass vial was added, (a) 800 μl of Tris(hydroxymethyl)aminomethane buffered saline pH 7.5 containing calcium chloride (50 mM Tris, 150 mM sodium chloride, 4 mM calcium chloride.), (b) 40 μl of physiological salt solution containing 100 units of thrombin per ml, (c) 400 μl of human plasma containing the radiolabelled substrate at a concentration of typically 10 kBq/ml. To aid induction of clot a roughened glass rod was added to the reaction vial. Control vials were prepared similarly but with the omission of thrombin and calcium chloride.
# (§2) The proportion of total radioactivity was calculated by counting in suitable detection apparatus.
# (§3) The fraction of radioactivity retained on the filter, after subtraction of the non-specific binding determined from the control, is a measure of incorporation into the filtered clots.
# [5] = biological target: T2, human plasma clots (Homo sapiens, UniProt P00488); experiment: as above; assay type: biochemical
# T2 construct: Factor XIII is transformed into its active form Factor XIIIa by thrombin in the presence of calcium ions; from tissue; host or cells: human plasma, clotted in vitro with thrombin and calcium chloride
# T2 sequence (P00488 39-732): T1 sequence (P00488 39-732 limits assumed)
# Description: as §1, §2, §3
# [6] = compound injected 5 min post-induction, clot removed after 60 min
smiles,measurement,setting,value
"CC(=NO)C(C)(C)NCC(C)(CNC(=O)c1ccc(S(=O)(=O)NCCCCCN)cc1)CNC(C)(C)C(C)=NO (stereo not shown) [Compound 3, 3,3,6,9,9-pentamethyl-6-(4-(N-(5-aminopentyl)amidosulphonyl)benzamidomethyl)-4,8-diazaundecane-2,10-dione dioxime]",% specific DMC casein uptake,[1],40%
same,% ID Blood,[2]; 2 min post-injection,19.29 ± 1.7 % ID
same,% ID GI Tract,[2]; 2 min post-injection,10.1 ± 1.2 % ID
same,% ID Heart,[2]; 2 min post-injection,0.51 + 0.08 % ID
same,% ID Kidney,[2]; 2 min post-injection,5.55 + 1 % ID
same,% ID Liver,[2]; 2 min post-injection,19.34 ± 0.8 % ID
same,% ID Lung,[2]; 2 min post-injection,1.43 ± 0.16 % ID
same,% ID Muscle,[2]; 2 min post-injection,23.6 ± 0.9 % ID
same,% ID Urine,[2]; 2 min post-injection,0.06 ± 0.02 % ID
same,% ID Blood,[2]; 15 min post-injection,1.45 ± 0.38 % ID
same,% ID GI Tract,[2]; 15 min post-injection,70 + 3.4 % ID
same,% ID Kidney,[2]; 15 min post-injection,2.1 ± 0.8 % ID
same,% ID Liver,[2]; 15 min post-injection,7.79 ± 1.16 % ID
same,% ID Lung,[2]; 15 min post-injection,0.23 ± 0.12 % ID
same,% ID Muscle,[2]; 15 min post-injection,4.87 ± 0.6 % ID
same,% ID Urine,[2]; 15 min post-injection,5.01 ± 2.53 % ID
same,% ID Blood,[2]; 30 min post-injection,0.59 ± 0.07 % ID
same,% ID GI Tract,[2]; 30 min post-injection,76.5 ± 5.6 % ID
same,% ID Kidney,[2]; 30 min post-injection,2.09 ± 1.87 % ID
same,% ID Liver,[2]; 30 min post-injection,1.95 ± 0.35 % ID
same,% ID Lung,[2]; 30 min post-injection,0.03 + 0.04 % ID
same,% ID Muscle,[2]; 30 min post-injection,1.53 ± 0.71 % ID
same,% ID Urine,[2]; 30 min post-injection,14.42 ± 3.78 % ID
same,% ID Blood,[2]; 60 min post-injection,0.31 ± 0.02 % ID
same,% ID GI Tract,[2]; 60 min post-injection,79.9 ± 2.9 % ID
same,% ID Kidney,[2]; 60 min post-injection,0.57 ± 0.12 % ID
same,% ID Liver,[2]; 60 min post-injection,1.54 ± 0.29 % ID
same,% ID Lung,[2]; 60 min post-injection,0.07 ± 0.02 % ID
same,% ID Muscle,[2]; 60 min post-injection,1.14 ± 0.48 % ID
same,% ID Urine,[2]; 60 min post-injection,14.66 ± 2.83 % ID
same,% ID Blood,[2]; 240 min post-injection,0.11 ± 0.07 % ID
same,% ID GI Tract,[2]; 240 min post-injection,83.5 ± 2.2 % ID
same,% ID Kidney,[2]; 240 min post-injection,0.45 ± 0.04 % ID
same,% ID Liver,[2]; 240 min post-injection,1.35 ± 0.06 % ID
same,% ID Lung,[2]; 240 min post-injection,0.14 + 0.24 % ID
same,% ID Muscle,[2]; 240 min post-injection,0.8 ± 0.17 % ID
same,% ID Urine,[2]; 240 min post-injection,12.31 ± 1.93 % ID
same,Clot/Blood,[3]; 60 min,2
same,Clot/Heart,[3]; 60 min,3.4
same,Clot/Liver,[3]; 60 min,0.23
same,Clot/Lung,[3]; 60 min,2.2
same,% ID/g (clot uptake),[3]; [6],0.10 ± 0.02 % ID/g
same,Relative conc (cpm/g of clot by dose/g animal),[3]; [6],0.37 ± 0.1
same,% retained in plasma clot assay (no thrombin),[4],3.0%
same,% specific uptake*,[5]; % retained with thrombin − % retained no thrombin,19%
same,% retained in plasma clot assay (with thrombin),"[5]; human plasma with thrombin and calcium chloride, 60 minutes, ca. 20° C.",22%

# From patent publication US6897209B2, “Labelled factor XIIIa substrates” (GE Healthcare Limited, priority 1997, dated 2005)
